Test results published in patent US20250368678A1, “19-NOR-C3,3-DISUBSTITUTED C21-AZACYCLO-S[…] AND METHOD FOR USING SAME” (SHANDONG LUYE PHARMACEUTICAL CO., LTD., priority 2022, published 2025).

System: not listed separately
Assay: In vitro liver microsomal stability assay, human
Assay type: in vitro ADME
Details: Human liver microsomes
Description: (§1) 1) Preparation of working solutions of test samples: The test samples were diluted with acetonitrile to 100 M.
(§2) 2) Preparation of a working solution of liver microsomes: liver microsomes were diluted with 100 mM phosphate-buffered saline to 0.56 mg/mL.
(§3) 3) Preparation of a working solution of reduced nicotinamide adenine dinucleotide (NADPH): A proper amount of NADPH was weighed out and diluted with phosphate-buffered saline to 20 mM, and an equal volume of a 60 mM MgCl2 solution was added.
(§4) 4) Preparation of a stop solution: Tolbutamide was diluted with acetonitrile to 20 ng/mL, serving as a stop solution containing an internal standard.
(§5) 1) Incubation anti-adsorption EP tubes were prepared and labeled with species, test/control sample, time points (0, 5, 10, 20, 30, 60 min, Blank60, and NCF60), etc.
(§6) 2) 2 L of test or control sample working solution, diluted with acetonitrile to 100 M, and 178 L of liver microsome working solution were added to each tube. For the Blank60 tube, 2 L of acetonitrile was added instead of a test sample. The tubes were pre-incubated in a 37° C. water bath for about 10 min, with each sample tested in triplicate.
(§7) 3) After the pre-incubation was complete, 20 L of NADPH working solution was added to each tube except for the 0 min and NCF60 tubes to start reactions, and 20 L of phosphate-buffered saline (containing 30 mM MgCl2) was added to the NCF60 tube. In the incubation system, the final concentrations of the test and control samples were 1 M, the final concentration of liver microsomes was 0.5 mg/mL, the final concentration of NADPH was 1 mM, and the final concentration of MgCl2 was 3 mM.
(§8) 4) For the 0 min sample, 600 L of stop solution was added before adding the NADPH working solution. After each sample was incubated for its respective time, 600 L of stop solution was added to stop the reaction.
(§9) 5) After the reaction was stopped, each sample was vortexed for 30 s and then centrifuged at 13,500 rpm for 10 min. 100 L of the supernatant was transferred to an EP tube, and 100 L Milli-Q water was added. The mixture was well mixed by vortexing and analyzed by LC-MS/MS.
(§10) 6) Testosterone and dextromethorphan were used as positive control samples under the same conditions to assess the stability and reliability of the system.
(§11) Parameters of the test samples, including their half-lives, intrinsic clearance rates in liver microsomes, and hepatic intrinsic clearance rates, were calculated based on the percentage of test sample remaining.

Structure (SMILES)	CLint scaled at 1 µM [mL/min/kg]	half-life at 1 µM [min]
C[C@@]1(O)CC[C@H]2[C@H](CC[C@@H]3[C@@H]2CC[C@]2(C)[C@@H](C(=O)Cn4cnn(-c5cccc(F)c5)c4=O)CC[C@@H]32)C1 [Compound 1]	3.97	330
C[C@@]1(O)CC[C@H]2[C@H](CC[C@@H]3[C@@H]2CC[C@]2(C)[C@@H](C(=O)Cn4cnn(C5CCCC5)c4=O)CC[C@@H]32)C1 [Compound 29]	60	20.7
C[C@@]1(O)CC[C@H]2[C@H](CC[C@@H]3[C@@H]2CC[C@]2(C)[C@@H](C(=O)Cn4cnn(-c5cccc(N)c5)c4=O)CC[C@@H]32)C1 [Compound 22]	320	7.8

Same assay, conditions: Human liver microsomes 0.5 mg/mL, NADPH

Structure (SMILES)	Remaining amount % at 60 min [%]
C[C@@]1(O)CC[C@H]2[C@H](CC[C@@H]3[C@@H]2CC[C@]2(C)[C@@H](C(=O)Cn4cnn(-c5cccc(F)c5)c4=O)CC[C@@H]32)C1 [Compound 1]	89.0
C[C@@]1(O)CC[C@H]2[C@H](CC[C@@H]3[C@@H]2CC[C@]2(C)[C@@H](C(=O)Cn4cnn(C5CCCC5)c4=O)CC[C@@H]32)C1 [Compound 29]	45.8
C[C@@]1(O)CC[C@H]2[C@H](CC[C@@H]3[C@@H]2CC[C@]2(C)[C@@H](C(=O)Cn4cnn(-c5cccc(N)c5)c4=O)CC[C@@H]32)C1 [Compound 22]	8.6

Same assay, conditions: Human liver microsomes; read-out: CLint(mic)

Structure (SMILES)	microsomal CLint at 1 µM [µL/min/mg]
C[C@@]1(O)CC[C@H]2[C@H](CC[C@@H]3[C@@H]2CC[C@]2(C)[C@@H](C(=O)Cn4cnn(-c5cccc(F)c5)c4=O)CC[C@@H]32)C1 [Compound 1]	4.2
C[C@@]1(O)CC[C@H]2[C@H](CC[C@@H]3[C@@H]2CC[C@]2(C)[C@@H](C(=O)Cn4cnn(C5CCCC5)c4=O)CC[C@@H]32)C1 [Compound 29]	67
C[C@@]1(O)CC[C@H]2[C@H](CC[C@@H]3[C@@H]2CC[C@]2(C)[C@@H](C(=O)Cn4cnn(-c5cccc(N)c5)c4=O)CC[C@@H]32)C1 [Compound 22]	178

Biological target: T1, α4β3δ GABA receptors (α4β3δ-HEK-FlpIn-TRex stable cell strain) (Homo sapiens, UniProt P28472+P48169)
T1 construct: expressed in transfected cells
T1 sequence (P48169 36-554): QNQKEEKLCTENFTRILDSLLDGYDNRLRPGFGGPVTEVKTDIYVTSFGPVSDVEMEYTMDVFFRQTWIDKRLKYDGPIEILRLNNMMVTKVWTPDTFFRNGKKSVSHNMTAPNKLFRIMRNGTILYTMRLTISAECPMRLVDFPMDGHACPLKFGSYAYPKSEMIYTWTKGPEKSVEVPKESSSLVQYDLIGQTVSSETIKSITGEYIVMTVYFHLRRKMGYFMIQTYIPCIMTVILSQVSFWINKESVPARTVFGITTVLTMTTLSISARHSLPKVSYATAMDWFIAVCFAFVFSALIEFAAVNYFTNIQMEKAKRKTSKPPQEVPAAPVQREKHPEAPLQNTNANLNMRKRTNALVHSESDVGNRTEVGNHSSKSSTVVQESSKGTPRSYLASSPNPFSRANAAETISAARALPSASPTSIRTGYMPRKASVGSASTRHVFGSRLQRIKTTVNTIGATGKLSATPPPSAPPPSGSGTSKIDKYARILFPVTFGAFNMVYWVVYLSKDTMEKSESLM
T1 sequence (P28472 26-473): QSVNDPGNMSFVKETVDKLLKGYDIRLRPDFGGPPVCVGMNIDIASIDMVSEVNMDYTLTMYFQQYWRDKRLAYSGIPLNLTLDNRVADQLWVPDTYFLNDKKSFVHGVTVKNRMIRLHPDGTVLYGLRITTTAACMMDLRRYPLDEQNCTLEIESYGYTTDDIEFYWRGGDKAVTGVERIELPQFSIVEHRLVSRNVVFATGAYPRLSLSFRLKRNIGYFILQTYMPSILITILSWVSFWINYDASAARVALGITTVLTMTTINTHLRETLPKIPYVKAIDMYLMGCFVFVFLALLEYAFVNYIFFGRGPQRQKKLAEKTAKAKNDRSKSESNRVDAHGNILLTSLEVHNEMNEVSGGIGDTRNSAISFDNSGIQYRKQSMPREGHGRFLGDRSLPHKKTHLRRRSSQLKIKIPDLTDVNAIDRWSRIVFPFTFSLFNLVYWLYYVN
T1 sequence (O14764 25-452 partner): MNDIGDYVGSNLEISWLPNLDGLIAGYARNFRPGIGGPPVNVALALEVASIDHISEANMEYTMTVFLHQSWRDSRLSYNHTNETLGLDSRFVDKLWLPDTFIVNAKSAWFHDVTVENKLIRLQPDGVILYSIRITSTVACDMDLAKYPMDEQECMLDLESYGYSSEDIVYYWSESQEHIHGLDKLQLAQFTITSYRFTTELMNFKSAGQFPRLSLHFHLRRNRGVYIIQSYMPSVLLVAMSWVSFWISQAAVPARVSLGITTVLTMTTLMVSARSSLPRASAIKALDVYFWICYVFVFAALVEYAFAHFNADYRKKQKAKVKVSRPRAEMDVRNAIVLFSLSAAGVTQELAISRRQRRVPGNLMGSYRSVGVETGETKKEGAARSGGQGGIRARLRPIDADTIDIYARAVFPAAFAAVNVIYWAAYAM
Assay: Whole-cell patch clamp, extrasynaptic functional activity (positive allosteric regulation of GABA-induced current)
Assay type: cell-based
Details: patch clamp -60 mV, GABA at EC10-20, α4β3δ-HEK-FlpIn-TRex cells
Description: (§12) The α4β3δ-HEK-FlpIn-TRex stable cell strain was cultured in DMEM+10% FBS complete culture medium, with the selective antibiotics being 10 μg/mL Blasticidin, 100 µg/mL Zeocin, 100 µg/mL Hygromycin, and 0.2 μg/mL Puromycin. The α1β2γ2-CHO-TRex stable cell strain was cultured in DMEM/F12+10% FBS complete culture medium, with the selective antibiotics being 10 μg/mL Blasticidin, 100 μg/mL Zeocin, 300 μg/mL Hygromycin, and […] Puromycin.
(§13) The day before the patch clamp experiment, cells were seeded onto 12 mm polylysine-coated coverslips and then cultured in 35 mm culture dishes, and tetracycline ([…]) was added to induce the expression of GABA receptors. The extracellular fluid had the following composition (in mM): 140 NaCl, 3 KCl, 1.5 MgCl2, 2 CaCl2, 10 HEPES, and 10 Glucose. After thorough mixing, NaOH was added to adjust the pH to 7.4, and sucrose was added to adjust the osmotic pressure to 300-320 mOsm. The fluid was stored at 4° C. The electrode internal solution had the following composition (in mM): 145 KCl, 1 MgCl2, 5 EGTA, 10 HEPES, and 5 MgATP. After thorough mixing, KOH was added to adjust the pH to 7.3, and sucrose was added to adjust the osmotic pressure to 290-300 mOsm. The solution was filtered through a […] before use.
(§14) Whole-cell patch clamp recording was mainly employed in this experiment. The membrane potential was clamped at −60 mV, and receptors were activated using GABA at an EC10-20 concentration ([…]). The test compounds were dissolved in 0.1% DMSO, and perfusion was performed for 30 s prior to GABA stimulation. Finally, the positive allosteric regulating effects of the test compounds on α1β2γ2 or α4β3δ were determined.
(§15) The experimental result for each concentration was expressed as a fold increase in the GABA-induced current caused by the compound. […] At least 5 concentrations are tested to obtain a complete EC50 curve and EC50 values. All experiments were repeated on no less than 3 cells, and data processing was completed using GraphPad prism software. The dose-response curves were fitted using the Hill equation, and the half-maximal activating concentration EC50 and Emax were finally obtained.

Structure (SMILES)	EC50 [nM]	Emax [%]
C[C@@]1(O)CC[C@H]2[C@H](CC[C@@H]3[C@@H]2CC[C@]2(C)[C@@H](C(=O)Cn4cnn(-c5cccc(F)c5)c4=O)CC[C@@H]32)C1 [Compound 1]	10	440
C[C@@]1(O)CC[C@H]2[C@H](CC[C@@H]3[C@@H]2CC[C@]2(C)[C@@H](C(=O)Cn4cnn(C5CCCC5)c4=O)CC[C@@H]32)C1 [Compound 29]	203	830
C[C@@]1(O)CC[C@H]2[C@H](CC[C@@H]3[C@@H]2CC[C@]2(C)[C@@H](C(=O)Cn4cnn(-c5cccc(N)c5)c4=O)CC[C@@H]32)C1 [Compound 22]	213	–

Biological target: T2, α1β2γ2 GABA receptors (α1β2γ2-CHO-TRex stable cell strain) (Homo sapiens, UniProt P14867+P47870)
T2 construct: expressed in transfected cells
T2 sequence (P14867 28-456): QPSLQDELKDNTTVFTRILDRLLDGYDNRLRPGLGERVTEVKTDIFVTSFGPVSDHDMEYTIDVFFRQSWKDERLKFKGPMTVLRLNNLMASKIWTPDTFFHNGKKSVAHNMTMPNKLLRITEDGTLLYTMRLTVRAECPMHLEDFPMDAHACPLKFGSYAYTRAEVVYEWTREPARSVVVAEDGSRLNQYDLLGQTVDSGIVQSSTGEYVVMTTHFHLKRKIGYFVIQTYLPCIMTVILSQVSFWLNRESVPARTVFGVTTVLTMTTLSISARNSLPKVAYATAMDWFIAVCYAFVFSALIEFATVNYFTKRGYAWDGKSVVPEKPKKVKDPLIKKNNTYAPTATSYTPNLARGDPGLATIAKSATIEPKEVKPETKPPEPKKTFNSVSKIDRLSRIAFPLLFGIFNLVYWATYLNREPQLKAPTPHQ
T2 sequence (P47870 25-512 limits assumed): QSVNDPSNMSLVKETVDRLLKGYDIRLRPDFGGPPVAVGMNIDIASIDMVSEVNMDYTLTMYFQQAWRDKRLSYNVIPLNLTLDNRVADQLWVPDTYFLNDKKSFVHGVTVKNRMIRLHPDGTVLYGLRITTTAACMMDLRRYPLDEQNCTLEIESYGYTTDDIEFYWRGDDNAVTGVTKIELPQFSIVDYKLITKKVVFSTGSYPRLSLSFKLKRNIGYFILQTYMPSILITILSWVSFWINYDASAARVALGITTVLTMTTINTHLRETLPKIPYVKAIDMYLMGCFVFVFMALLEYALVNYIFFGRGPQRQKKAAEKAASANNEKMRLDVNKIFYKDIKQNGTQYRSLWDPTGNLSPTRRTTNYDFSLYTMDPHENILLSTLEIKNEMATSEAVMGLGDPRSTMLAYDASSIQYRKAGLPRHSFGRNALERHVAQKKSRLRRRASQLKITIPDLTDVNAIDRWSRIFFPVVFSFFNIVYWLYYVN
T2 sequence (P18507 40-475 partner): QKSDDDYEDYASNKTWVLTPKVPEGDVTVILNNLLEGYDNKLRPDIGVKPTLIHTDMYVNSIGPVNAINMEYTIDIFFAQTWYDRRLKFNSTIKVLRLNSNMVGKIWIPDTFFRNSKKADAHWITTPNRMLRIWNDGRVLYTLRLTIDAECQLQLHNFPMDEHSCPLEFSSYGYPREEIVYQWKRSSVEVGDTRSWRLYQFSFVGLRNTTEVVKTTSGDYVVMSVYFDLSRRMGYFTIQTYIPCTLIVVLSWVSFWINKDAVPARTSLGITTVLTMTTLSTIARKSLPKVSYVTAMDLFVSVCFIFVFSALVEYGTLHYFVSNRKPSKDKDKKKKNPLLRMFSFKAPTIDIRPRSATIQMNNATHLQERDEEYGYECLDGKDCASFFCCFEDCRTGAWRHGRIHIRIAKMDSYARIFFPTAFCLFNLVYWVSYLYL
Assay: Whole-cell patch clamp, intrasynaptic functional activity (positive allosteric regulation of GABA-induced current)
Assay type: cell-based
Details: patch clamp -60 mV, GABA at EC10-20, α1β2γ2-CHO-TRex cells
Description: as §12, §13, §14, §15

Structure (SMILES)	EC50 [nM]	Emax [%]
C[C@@]1(O)CC[C@H]2[C@H](CC[C@@H]3[C@@H]2CC[C@]2(C)[C@@H](C(=O)Cn4cnn(-c5cccc(F)c5)c4=O)CC[C@@H]32)C1 [Compound 1]	56	566
C[C@@]1(O)CC[C@H]2[C@H](CC[C@@H]3[C@@H]2CC[C@]2(C)[C@@H](C(=O)Cn4cnn(C5CCCC5)c4=O)CC[C@@H]32)C1 [Compound 29]	192	691
C[C@@]1(O)CC[C@H]2[C@H](CC[C@@H]3[C@@H]2CC[C@]2(C)[C@@H](C(=O)Cn4cnn(-c5cccc(N)c5)c4=O)CC[C@@H]32)C1 [Compound 22]	349	786

System: not listed separately
Assay: In vitro liver microsomal stability assay, rat
Assay type: in vitro ADME
Details: Rat liver microsomes
Description: as §1, §2, §3, §4, §5, §6, §7, §8, §9, §10, §11

Structure (SMILES)	CLint scaled at 1 µM [mL/min/kg]	half-life at 1 µM [min]
C[C@@]1(O)CC[C@H]2[C@H](CC[C@@H]3[C@@H]2CC[C@]2(C)[C@@H](C(=O)Cn4cnn(-c5cccc(F)c5)c4=O)CC[C@@H]32)C1 [Compound 1]	43.6	57.3
C[C@@]1(O)CC[C@H]2[C@H](CC[C@@H]3[C@@H]2CC[C@]2(C)[C@@H](C(=O)Cn4cnn(C5CCCC5)c4=O)CC[C@@H]32)C1 [Compound 29]	64	38.7
C[C@@]1(O)CC[C@H]2[C@H](CC[C@@H]3[C@@H]2CC[C@]2(C)[C@@H](C(=O)Cn4cnn(-c5cccc(N)c5)c4=O)CC[C@@H]32)C1 [Compound 22]	146	17.1

Same assay, conditions: Rat liver microsomes 0.5 mg/mL, NADPH

Structure (SMILES)	Remaining amount % at 60 min [%]
C[C@@]1(O)CC[C@H]2[C@H](CC[C@@H]3[C@@H]2CC[C@]2(C)[C@@H](C(=O)Cn4cnn(-c5cccc(F)c5)c4=O)CC[C@@H]32)C1 [Compound 1]	44.5
C[C@@]1(O)CC[C@H]2[C@H](CC[C@@H]3[C@@H]2CC[C@]2(C)[C@@H](C(=O)Cn4cnn(C5CCCC5)c4=O)CC[C@@H]32)C1 [Compound 29]	36.8
C[C@@]1(O)CC[C@H]2[C@H](CC[C@@H]3[C@@H]2CC[C@]2(C)[C@@H](C(=O)Cn4cnn(-c5cccc(N)c5)c4=O)CC[C@@H]32)C1 [Compound 22]	8.9

Same assay, conditions: Rat liver microsomes; read-out: CLint(mic)

Structure (SMILES)	microsomal CLint at 1 µM [µL/min/mg]
C[C@@]1(O)CC[C@H]2[C@H](CC[C@@H]3[C@@H]2CC[C@]2(C)[C@@H](C(=O)Cn4cnn(-c5cccc(F)c5)c4=O)CC[C@@H]32)C1 [Compound 1]	24.2
C[C@@]1(O)CC[C@H]2[C@H](CC[C@@H]3[C@@H]2CC[C@]2(C)[C@@H](C(=O)Cn4cnn(C5CCCC5)c4=O)CC[C@@H]32)C1 [Compound 29]	36
C[C@@]1(O)CC[C@H]2[C@H](CC[C@@H]3[C@@H]2CC[C@]2(C)[C@@H](C(=O)Cn4cnn(-c5cccc(N)c5)c4=O)CC[C@@H]32)C1 [Compound 22]	81
